Laboratory results published in patent publication US20080234241A1, “MELANOGENESIS INHIBITORS AND WHITENING AGENTS COMPRISING ERGOSTEROL DERIVATIVE AND COMPOSITIONS CONTAINING ERGOSTEROL DERIVATIVE” (Sakamoto Bio Co., Ltd., priority 2000, published 2008).

Experiments:
[1] = system: B 16 IOF7 melanoma cells; assay: Melanogenesis inhibitory effect in B16 melanoma cells; type: cell-based, mouse; settings: for Minimum concentration for inhibition of melanogenesis: B16 cells cultivated 72 hours at 37° C., melanin from absorbance at 470 nm against methanol-treated control as 100%
Description: Melanogenesis inhibitory activity was evaluated using B 16 IOF7 melanoma cells (obtained from the Akita Research Institute of Food and Brewing, Japan), which are melanogenic cells of mouse cells, by application to the cells of an isolated form of Formula (1) described above in a solution diluted with the couture medium, thereby observing the production of melanin. The B16 cells, cultivated to a 70% confluent level in a flask, were washed with PBS and then were treated with a trypsin solution to isolate the cells. The same volume of a serum-containing culture medium (E-MEM, 10% FBS) as that of the trypsin was added to the flask, followed by collecting the cells and centrifuging (800 rpm, 5 min.). After this phase of the process, the number of cells was counted and adjusted to approximately 10^4 cells/ml in the culture medium (E-MEM, 10% FBS). A diluted solution of Formula (1) was prepared by placing 20 μL of sterile PBS on a cell culturing plate (a type for adherent cells) along with 20 μL of a Formula (1) solution, thereby doubling dilution (a final concentration in the culture medium from 100 μg/mL to […]). The control arbutin (a final concentration in the culture medium from 140 μg/mL to 0.22 μg/mL) in methanol was similarly diluted.
Then 80 μL of the cell suspension was added to the diluted sample solution (20 μL) on the plate, and the mixture was cultivated in a CO2 incubator at 37° C. for 72 hours. Melanogenesis in the cells was observed under a microscope. In cases where melanogenesis was confirmed microscopically, the culture medium was removed, and the cell layer was treated with 300 μL of 1N NaOH to dissolve the melanin, where the concentration of the melanin formed was determined from measurement of absorbance at 470 nm. The levels of Formula (1) and arbutin used were varied to determine their minimum concentrations needed for inhibiting melanogenesis, against the value of the methanol-treated control as 100%.

[2] = system: pigment deposition on brachial skin; assay: Measurement of whitening effect: lotion applied to brachial skin after exposure to sun light; type: in vivo, men; settings: for Decision (whitening effect): lotion, group of 20 men, applied twice everyday for 5 weeks starting five days after sun exposure; for Whitening effect of lotions, result in words: lotions of Table 2, 20 men, 5 weeks
Description: Preparation the Alcohol and Water Phases are Prepared, Mixed, and Dissolved
A test group made up of 20 men was exposed to sun light in summer for four hours per day from […]. for 2 days. Five days after the exposure to the sun light, the lotion described above was applied to the group on the brachial skin twice everyday, once each in the morning and in the evening for 5 weeks.

Row | SMILES | Microscopic observation of melanogenesis in B16 cells ([1]; 72 hours culture, compared with arbutin) | Minimum concentration for inhibition of melanogenesis [1] [µg/mL] | Decision (whitening effect) ([2]; content 0.2 % w/w) | Decision (whitening effect) ([2]; content 1.0 % w/w) | Whitening effect of lotions, result in words [2]
1 | CC(C)[C@@H](C)/C=C/[C@@H](C)[C@H]1CC[C@@H]2[C@]1(C)CCC1[C@]23C=C[C@]2(C[C@@H](O)CC[C@]12C)OO3 (stereo partly drawn) [Formula (1), 5α,8α-epidioxy-(22E,24R)-orgosta-6,22-dien-3β-ol] | inhibited more extensively by Formula (1) than by arbutin | 0.045 | B (11 to 15 out of the group rated “Effective” or “More effective”) | A (16 or more out of the group rated “Effective” or “More effective”) | prevented pigment deposition and gave a whitening effect
2 | OC[C@H]1O[C@@H](Oc2ccc(O)cc2)[C@H](O)[C@@H](O)[C@@H]1O [Arbutin, arbutin, reference compound] | – | 0.88 | – | – | –
3 | Oc1ccc(O)cc1 [hydroquinone, reference compound] | – | – | – | C (6 to 10 out of the group rated “Effective” or “More effective”) | nor Comparative example 2 (hydroquinone) was effective
